For this assay, the system named is Aβ42 production. Description: Quantification of Aβ peptide in neuronal culture from rat fetus brain (Aβ ELISA). It is filed as cell-based. The following applies: 72 h; rat primary neuronal culture (cerebral cortex, embryonic day 18 Wistar rats); medium collected three days after addition of compound; Aβx-42 ELISA; read-out: Aβ42 production reducing effect IC50. The protocol:
Quantification of Aβ Peptide in Neuronal Culture from Rat Fetus Brain
Primary neuronal cultures were prepared from the cerebral cortex of embryonic day 18 Wistar rats (Charles River Japan, Yokohama, Japan). Specifically, the embryos were aseptically removed from pregnant rats under ether anesthesia. The brain was isolated from the embryo and immersed in an ice-cold L-15 medium (such as Invitrogen Corp. Cat #11415-064, Carlsbad, Calif., USA, or SIGMA L1518). The cerebral cortex was collected from the isolated brain under a stereoscopic microscope. The cerebral cortex fragments collected were enzymatically treated in an enzyme solution containing 0.25% trypsin (Invitrogen Corp. Cat #15050-065, Carlsbad, Calif., USA) and 0.01% DNase (Sigma D5025, St. Louis, Mo., USA) at 37° C. for 30 minutes to disperse the cells. Here, the enzymatic reaction was stopped by adding inactivated horse serum to the solution. The enzymatically treated solution was centrifuged at 1,500 rpm for five minutes to remove the supernatant. 5 to 10 ml of a medium was added to the resulting cell mass. Neurobasal medium (Invitrogen Corp. Cat #21103-049, Carlsbad, Calif., USA) supplemented with 2% B27 supplement (Invitrogen Corp. Cat #17504-044, Carlsbad, Calif., USA), 25 μM 2-mercaptoethanol (2-ME, WAKO Cat #139-06861, Osaka, Japan), 0.5 mM L-glutamine (Invitrogen Corp. Cat #25030-081, Carlsbad, Calif., USA), and Antibiotics-Antimycotics (Invitrogen Corp. Cat #15240-062, Carlsbad, Calif., USA) was used as the medium (Neurobasal/B27/2-ME). However, the above Neurobasal medium not supplemented with 2-ME (Neurobasal/B27) was used for the assay. The cells were redispersed by mild pipetting of the cell mass to which the medium was added. The cell dispersion was filtered through a 40-μm nylon mesh (Cell Strainer, Cat #35-2340, Becton Dickinson Labware, Franklin Lakes, N.J., USA) to remove the remaining cell mass, and thus a neuronal cell suspension was obtained. The neuronal cell suspension was diluted with the medium and then plated in a volume of 100 μl/well at an initial cell density of 5×10^5 cells/cm^2 in a 96-well polystyrene culture plate pre-coated with poly-L or D-lysine (Falcon Cat #35-3075, Becton Dickinson Labware, Franklin Lakes, N.J., USA coated with poly-L-lysine using the method shown below, or BIOCOAT™ cell environments Poly-D-lysine cell ware 96-well plate, Cat #35-6461, Becton Dickinson Labware, Franklin Lakes, N.J., USA). Poly-L-lysine coating was carried out as follows. 100 μg/ml of a poly-L-lysine (SIGMA P2636, St. Louis, Mo., USA) solution was aseptically prepared with a 0.15 M borate buffer (pH 8.5). […] of the solution was added to the 96-well polystyrene culture plate and incubated at room temperature for one or more hours or at 4° C. overnight or longer. The coated 96-well polystyrene culture plate was washed with sterile water four or more times, and then dried or rinsed with, for example, sterile PBS or medium, and used for cell plating. The plated cells were cultured in the culture plate at 37° C. in 5% CO2-95% air for one day. Then, the total amount of the medium was replaced with a fresh Neurobasal™/B27/2-ME medium, and then the cells were cultured for further three days.
The drug was added to the culture plate on Day 4 of culture as follows. The total amount of the medium was removed from the wells, and 180 μl/well of Neurobasal medium not containing 2-ME and containing 2% B-27 (Neurobasal/B27) was added thereto. A solution of the test compound in dimethyl sulfoxide (hereinafter abbreviated as DMSO) was diluted with Neurobasal/B27 to a concentration 10-fold higher than the final concentration. 20 μl/well of the dilution was added to and sufficiently mixed with the medium. The final DMSO concentration was 1% or less. Only DMSO was added to the control group.
The cells were cultured for three days after addition of the compound, and the total amount of the medium was collected. The resulting medium was used as an ELISA sample. […]
What is called IC50 is the midpoint of a concentration-inhibition curve. For `COc1cc(NC(=O)NCC2c3ccccc3-c3ccccc32)ccc1-n1ccnc1` [Example 6, 1-(9H-fluoren-9-ylmethyl)-3-[4-(1H-imidazol-1-yl)-3-methoxyphenyl]urea], the IC50 came to 5.2 µM.

With `COc1cc(NC(=O)NCc2ccc(Cl)c(Cl)c2)ccc1-n1cnc(C)c1` [Example 8, 1-(3,4-dichlorobenzyl)-3-[3-methoxy-4-(4-methyl-1H-imidazol-1-yl)phenyl]urea], the IC50 stood at 1.71 µM.

On to `COc1cc(NC(=O)N[C@@H](C)c2ccc(F)cc2)ccc1-n1cnc(C)c1` [Example 10, 1-[(S)-1-(4-fluorophenyl)ethyl]-3-[3-methoxy-4-(4-methyl-1H-imidazol-1-yl)phenyl]urea], for which the IC50 is 1.22 µM.

For the compound `COc1cc(NC(=O)NCCc2ccc(Cl)c(Cl)c2)ccc1-n1cnc(C)c1` [Example 11, 1-[2-(3,4-dichlorophenyl)ethyl]-3-[3-methoxy-4-(4-methyl-1H-imidazol-1-yl)phenyl]urea], the IC50 came out at 0.97 µM.

With `COc1cc(NC(=O)NCC2(c3ccccc3)Cc3ccccc3C2)ccc1-n1cnc(C)c1` [Example 15, 1-[3-methoxy-4-(4-methyl-1H-imidazol-1-yl)phenyl]-3-(2-phenyl-indan-2-ylmethyl)urea monotrifluoroacetate], the IC50 came out at 0.16 µM.

`COc1cc(NC(=O)N2CCCCC2CCc2ccccc2F)ccc1-n1cnc(C)c1` (centres unmarked) [Example 16, 2-[2-(2-fluorophenyl)ethyl]piperidine-1-carboxylic acid [3-methoxy-4-(4-methyl-1H-imidazol-1-yl)phenyl]amide monotrifluoroacetate]: the IC50 is 1.42 µM.

As for `COc1cc(NC(=O)NC(Cc2ccccc2)c2ccccc2)ccc1-n1cnc(C)c1` (centres unmarked) [Example 17, 1-(1,2-diphenyl-ethyl)-[3-methoxy-4-(4-methyl-1H-imidazol-1-yl)phenyl]urea monotrifluoroacetate], the IC50 is 0.56 µM.

For the compound `COc1cc(NC(=O)NCCCc2ccccc2)ccc1-n1cnc(C)c1` [Example 18, 1-[3-methoxy-4-(4-methyl-1H-imidazol-1-yl)phenyl]-3-(3-phenylpropyl)urea monotrifluoroacetate], the IC50 stood at 0.86 µM.

In the case of `COc1cc(NC(=O)NCc2cc(F)c(F)c(F)c2)ccc1-n1cnc(C)c1` [Example 19, 1-[3-methoxy-4-(4-methyl-1H-imidazol-1-yl)phenyl]-3-(3,4,5-trifluorobenzyl)urea monotrifluoroacetate], the IC50 came out at 2.07 µM.

As for `COc1cc(NC(=O)N2CCC(c3ccccc3)CC2)ccc1-n1cnc(C)c1` [Example 20, 4-phenyl-piperidine-1-carboxylic acid [3-methoxy-4-(4-methyl-1H-imidazo1-1-yl)phenyl]amide monotrifluoroacetate], the IC50 is 1.61 µM.

Consider `COc1cc(NC(=O)N2CCCC(c3ccccc3)C2)ccc1-n1cnc(C)c1` (centres unmarked) [Example 21, 3-phenyl-piperidine-1-carboxylic acid [3-methoxy-4-(4-methyl-1H-imidazol-1-yl)phenyl]amide monotrifluoroacetate], for which the IC50 came out at 1.66 µM.

For `COc1cc(NC(=O)N[C@@H](CO)Cc2ccccc2)ccc1-n1cnc(C)c1` [Example 23, 1-((R)-1-hydroxymethyl-2-phenylethyl)-3-[3-methoxy-4-(4-methyl-1H-imidazol-1-yl)phenyl]urea], the IC50 was determined as 1.05 µM.

For `COc1cc(NC(=O)NCCC(c2ccccc2)c2ccccc2)ccc1-n1cnc(C)c1` [Example 24, 1-(3,3-diphenylpropyl)-3-[3-methoxy-4-(4-methyl-1H-imidazol-1-yl)phenyl]urea monotrifluoroacetate], the IC50 is 0.22 µM.

Turning to `COc1cc(NC(=O)NCC(c2ccccc2)c2ccccc2)ccc1-n1cnc(C)c1` [Example 25, 1-(2,2-diphenylethyl)-3-[3-methoxy-4-(4-methyl-1H-imidazol-1-yl)phenyl]urea monotrifluoroacetate], the IC50 came to 0.19 µM.

For the compound `COc1cc(NC(=O)NCCCc2ccc(C3CCCCC3)cc2)ccc1-n1cnc(C)c1` [Example 26, 1-[3-(4-cyclohexyl-phenyl)propyl]-3-[3-methoxy-4-(4-methyl-1H-imidazol-1-yl)phenyl]urea monotrifluoroacetate], the IC50 stood at 0.23 µM.

In the case of `COc1cc(NC(=O)NCC(C)(C)c2ccccc2)ccc1-n1cnc(C)c1` [Example 27, 1-[3-methoxy-4-(4-methyl-1H-imidazol-1-yl)phenyl]-3-(2-methyl-2-phenylpropyl)urea monotrifluoroacetate], the IC50 was 0.54 µM.

Turning to `COc1cc(NC(=O)NC[C@H](O)c2ccccc2)ccc1-n1cnc(C)c1` [Example 29, 1-(R)-2-hydroxy-2-phenylethyl-3-[3-methoxy-4-(4-methyl-1H-imidazol-1-yl)phenyl]urea], the IC50 stood at 3.84 µM.
